These results are taken from patent publication US20100113272A1, “HERBICIDAL COMPOSITION AND METHOD OF USE THEREOF” (SYNGENTA CORP PROTECTION, INC., priority 2006, published 2010).

One assay relates to large crabgrass. Description: Glasshouse trial, control of large crabgrass, mesotrione and prodiamine spray applied pre-emergence. The class given is in vivo, Digitaria sanguinalis. The note with it: for control of large crabgrass on its own: spray pre-emergence, 7 DAT. As for the experimental part:
A glasshouse trial was carried out. Large crabgrass seeds were sown into standard glasshouse potting mix (1:1 v/v Promix:Vero sand soil) contained in 10 cm square plastic pots. Treatments were replicated three times. Mesotrione (in the form Callisto® 480SE) was applied pre-emergence to large crabgrass at either 12 g ai/ha or 24 g ai/ha with or without prodiamine (in the form Barricade® 4FL). When used, prodiamine was applied at a rate of 53 g ai/ha or 105 g ai/ha. The adjuvant system was X-77 at 0.1% v/v in deionised water. 200 litres of herbicide/adjuvant system was used per hectare. General weed control was evaluated at 7 and 14 days after treatment (DAT).
It is noted that control of large crabgrass with mesotrione alone applied pre-emergence at the higher rate (24 g ai/ha) was high; thus it was not possible to detect synergy when mesotrione was mixed with prodiamine. […] The results were evaluated using the Colby formula. The expected result for (A+B) is (A+B)−(A×B/100) where A and B are the ‘observed’ results for A and B on their own.

Assay [1] concerns large crabgrass (Digitaria sanguinalis). Description: Glasshouse trial, control of large crabgrass, mesotrione and prodiamine spray applied post-emergence. The class given is in vivo. Conditions: for control of large crabgrass on its own: spray post-emergence, 14 DAT. As for the experimental part: A glasshouse trial was carried out. Large crabgrass seeds were sown into standard glasshouse potting mix (1:1 v/v Promix:Vero sand soil) contained in 10 cm square plastic pots. Treatments were replicated three times. Mesotrione (in the form Callisto® 480SE) was applied post-emergence to large crabgrass (Digitaria sanguinalis) at either 12 g ai/ha or 24 g ai/ha with or without prodiamine (in the form Barricade® 4FL). When used, prodiamine was applied at a rate of 210 g ai/ha or 420 g ai/ha. The adjuvant system was X-77 at 0.1% v/v in deionised water. 200 litres of herbicide/adjuvant system was used per hectare. General weed control was evaluated at 7 and 14 days after treatment (DAT). It is noted that all herbicides were applied at reduced field rates because herbicide effects are magnified in a glasshouse environment. Rates were chosen to give a 50 to 70% level of control with herbicides applied alone as this allows for detection of any synergistic effect when tank mixtures are used.
The results were evaluated using the Colby formula. The expected result for (A+B) is (A+B)−(A×B/100) where A and B are the ‘observed’ results for A and B on their own.

With `CCCN(CCC)c1c([N+](=O)[O-])cc(C(F)(F)F)c(N)c1[N+](=O)[O-]` [Prodiamine, N^3,N^3-di-n-propyl-2,4-dinitro-6-(trifluoromethyl)-m-phenylenediamine], the “control of large crabgrass on its own” value in the assay on large crabgrass (prodiamine alone, 105 g ai/ha) is recorded as 76%; in assay [1] (prodiamine alone, 210 or 420 g ai/ha) it was “no control”.
`CS(=O)(=O)c1ccc(C(=O)C2C(=O)CCCC2=O)c([N+](=O)[O-])c1` [Mesotrione, 2-(2′-nitro-4′-methylsulphonylbenzoyl)-1,3-cyclohexanedione]: the “control of large crabgrass on its own” value in the assay on large crabgrass (mesotrione alone, 12 g ai/ha) is on record as 50%; in assay [1] (mesotrione alone at the higher rate (24 g ai/ha)), 66.7%; in assay [1] (mesotrione alone at the lower rate (12 g ai/ha)), 46.7%. The “control of large crabgrass with mesotrione alone” value was “high” in the assay on large crabgrass (pre-emergence at the higher rate (24 g ai/ha)) and “relatively high” in assay [1] (post-emergence, 7 DAT).
